Active and inactive are the calls of the source. How the calls were made is not given here.
Tested on: CCRIS mutagenicity, Ames/micronucleus/aberration tests
Test: CCRIS mutagenicity studies
[1] = Test System: AMES SALMONELLA TYPHIMURIUM, Strain/Indicator: TA98, Metabolic Activation: NONE, Method: STANDARD PLATE
[2] = Test System: AMES SALMONELLA TYPHIMURIUM, Strain/Indicator: TA98, Metabolic Activation: RAT, LIVER, S-9, AROCLOR 1254, Method: STANDARD PLATE
[3] = Test System: AMES SALMONELLA TYPHIMURIUM, Strain/Indicator: TA100, Metabolic Activation: NONE, Method: STANDARD PLATE
[4] = Test System: AMES SALMONELLA TYPHIMURIUM, Strain/Indicator: TA98(NR), Metabolic Activation: NONE, Method: STANDARD PLATE
[5] = Test System: AMES SALMONELLA TYPHIMURIUM, Strain/Indicator: TA98, Metabolic Activation: NONE, Method: PREINCUBATION
[6] = Test System: AMES SALMONELLA TYPHIMURIUM, Strain/Indicator: TA100, Metabolic Activation: NONE, Method: PREINCUBATION

With CCCCCCCCCCOC[N+](C)(C)Cc1ccccc1 as the compound, how does the mutagenic call (Test System: BACILLUS SUBTILIS, Strain/Indicator: H17/REC, Metabolic Activation: NONE, Method: STANDARD PLATE) read?
Its mutagenic call is “inactive; negative”.

And the mutagenic call (Test System: BACILLUS SUBTILIS, Strain/Indicator: M45, Metabolic Activation: NONE, Method: STANDARD PLATE)?
Its mutagenic call is “inactive; negative”.

Which results are given for NC(=O)NCC(=O)O?
mutagenic call (Test System: AMES SALMONELLA TYPHIMURIUM, Strain/Indicator: TA97, Metabolic Activation: NONE, Method: STANDARD PLATE): inactive; negative; mutagenic call (Test System: AMES SALMONELLA TYPHIMURIUM, Strain/Indicator: TA97, Metabolic Activation: RAT, LIVER, S-9, AROCLOR 1254, Method: STANDARD PLATE): inactive; negative; mutagenic call [1]: inactive; negative; mutagenic call [2]: inactive; negative; mutagenic call [3]: inactive; negative; mutagenic call (Test System: AMES SALMONELLA TYPHIMURIUM, Strain/Indicator: TA100, Metabolic Activation: RAT, LIVER, S-9, AROCLOR 1254, Method: STANDARD PLATE): inactive; negative; mutagenic call (Test System: AMES SALMONELLA TYPHIMURIUM, Strain/Indicator: TA102, Metabolic Activation: NONE, Method: STANDARD PLATE): inactive; negative; mutagenic call (Test System: AMES SALMONELLA TYPHIMURIUM, Strain/Indicator: TA102, Metabolic Activation: RAT, LIVER, S-9, AROCLOR 1254, Method: STANDARD PLATE): inactive; negative

For Cc1cc2nccnc2c2nc(N)n(C)c12, which mutagenic call [2] is on record?
The mutagenic call was “active; positive”.

CC(=O)c1oc([N+](=O)[O-])c(-c2ccccc2)c1-c1ccccc1 was tested. Which mutagenic call [4] did it give?
The mutagenic call was “inactive; negative”.

And the mutagenic call [1]?
Its mutagenic call is “active; positive”.

What about the mutagenic call (Test System: AMES SALMONELLA TYPHIMURIUM, Strain/Indicator: TA100(NR), Metabolic Activation: NONE, Method: STANDARD PLATE) of the same compound?
The mutagenic call was “inactive; negative”.

What about the mutagenic call [3] of the same compound?
The mutagenic call was “active; positive”.

Which results are given for CCCCCCCCCCCCOS(=O)(=O)O?
mutagenic call (Test System: AMES SALMONELLA TYPHIMURIUM, Strain/Indicator: TA98, Metabolic Activation: HAMSTER, LIVER, S-9, AROCLOR 1254 (10%), Method: PREINCUBATION): inactive; negative; mutagenic call [5]: inactive; negative; mutagenic call (Test System: AMES SALMONELLA TYPHIMURIUM, Strain/Indicator: TA98, Metabolic Activation: RAT, LIVER, S-9, AROCLOR 1254 (10%), Method: PREINCUBATION): inactive; negative; mutagenic call (Test System: AMES SALMONELLA TYPHIMURIUM, Strain/Indicator: TA100, Metabolic Activation: HAMSTER, LIVER, S-9, AROCLOR 1254 (10%), Method: PREINCUBATION): inactive; negative; mutagenic call [6]: inactive; negative; mutagenic call (Test System: AMES SALMONELLA TYPHIMURIUM, Strain/Indicator: TA100, Metabolic Activation: RAT, LIVER, S-9, AROCLOR 1254 (10%), Method: PREINCUBATION): inactive; negative; mutagenic call (Test System: AMES SALMONELLA TYPHIMURIUM, Strain/Indicator: TA1535, Metabolic Activation: HAMSTER, LIVER, S-9, AROCLOR 1254 (10%), Method: PREINCUBATION): inactive; negative; mutagenic call (Test System: AMES SALMONELLA TYPHIMURIUM, Strain/Indicator: TA1535, Metabolic Activation: NONE, Method: PREINCUBATION): inactive; negative; mutagenic call (Test System: AMES SALMONELLA TYPHIMURIUM, Strain/Indicator: TA1535, Metabolic Activation: RAT, LIVER, S-9, AROCLOR 1254 (10%), Method: PREINCUBATION): inactive; negative; mutagenic call (Test System: AMES SALMONELLA TYPHIMURIUM, Strain/Indicator: TA1537, Metabolic Activation: HAMSTER, LIVER, S-9, AROCLOR 1254 (10%), Method: PREINCUBATION): inactive; negative; mutagenic call (Test System: AMES SALMONELLA TYPHIMURIUM, Strain/Indicator: TA1537, Metabolic Activation: NONE, Method: PREINCUBATION): inactive; negative; mutagenic call (Test System: AMES SALMONELLA TYPHIMURIUM, Strain/Indicator: TA1537, Metabolic Activation: RAT, LIVER, S-9, AROCLOR 1254 (10%), Method: PREINCUBATION): inactive; negative

Which mutagenic call (Test System: Mouse lymphoma, Strain/Indicator: L5178Y (tk+/tk-), Metabolic Activation: None, Method: Suspension/plate) does the source give for CC(Oc1ccc(Oc2cnc3cc(Cl)ccc3n2)cc1)C(=O)O (stereo not given) here?
The mutagenic call was “active; positive”.

And the mutagenic call (Test System: Mouse lymphoma, Strain/Indicator: L5178Y (tk+/tk-), Metabolic Activation: Rat, Liver, S-9, Aroclor 1254, Method: Suspension/plate)?
The mutagenic call was “active; positive”.

How did the mutagenic call (End Point: IN VITRO CHROMOSOMAL ABERRATIONS, Test System: CHL CELLS, Metabolic Activation: NONE) turn out when COC(=O)C(Cl)Cl was run?
Its mutagenic call is “active; positive (structural changes); precipitation of test chemical observed above 1.6”.

What about the mutagenic call (End Point: IN VITRO CHROMOSOMAL ABERRATIONS, Test System: CHL CELLS, Metabolic Activation: RAT, LIVER, S-9, SODIUM PHENOBARBITAL AND 5,6-BENZOFLAVONE) of the same compound?
The mutagenic call was “active; positive (structural changes); precipitation of test chemical observed above 2.0”.

And the mutagenic call (Test System: AMES SALMONELLA TYPHIMURIUM, Strain/Indicator: TA102, Metabolic Activation: RAT, LIVER, S-9, PHENOBARBITAL AND 5,6-BENZOFLAVONE, Method: STANDARD PLATE)?
Its mutagenic call is “active; positive”.

And the mutagenic call (Test System: AMES SALMONELLA TYPHIMURIUM, Strain/Indicator: TA2638, Metabolic Activation: RAT, LIVER, S-9, PHENOBARBITAL AND 5,6-BENZOFLAVONE, Method: STANDARD PLATE)?
The mutagenic call was “active; positive”.

And the mutagenic call (Test System: E. COLI, Strain/Indicator: WP2 (PKM101), Metabolic Activation: RAT, LIVER, S-9, PHENOBARBITAL AND 5,6-BENZOFLAVONE, Method: STANDARD PLATE)?
The mutagenic call was “active; positive”.

And the mutagenic call (Test System: E. COLI, Strain/Indicator: WP2 UVRA (PKM101), Metabolic Activation: RAT, LIVER, S-9, PHENOBARBITAL AND 5,6-BENZOFLAVONE, Method: STANDARD PLATE)?
Its mutagenic call is “active; positive”.

What does the source list for Nc1cc2c3c(ccc2c2ccccc12)[C@H](O)[C@@H](O)C=C3?
mutagenic call [5]: inactive; negative; mutagenic call (Test System: AMES SALMONELLA TYPHIMURIUM, Strain/Indicator: TA98, Metabolic Activation: RAT, LIVER, S-9, AROCLOR 1254, Method: PREINCUBATION): inactive; negative; mutagenic call [6]: active; positive; mutagenic call (Test System: AMES SALMONELLA TYPHIMURIUM, Strain/Indicator: TA100, Metabolic Activation: RAT, LIVER, S-9, AROCLOR 1254, Method: PREINCUBATION): active; positive; mutagenic call (Test System: CHINESE HAMSTER OVARY, Strain/Indicator: CHO-K1-BH4 (HGPRT)/6-THIOGUANINE, Metabolic Activation: NONE, Method: STANDARD PLATE): inactive; negative; mutagenic call (Test System: CHINESE HAMSTER OVARY, Strain/Indicator: CHO-K1-BH4 (HGPRT)/6-THIOGUANINE, Metabolic Activation: RAT, LIVER, S-9, AROCLOR 1254, Method: STANDARD PLATE): active; positive; mutagenic call (Test System: CHINESE HAMSTER OVARY, Strain/Indicator: CHO-UV5 (HGPRT)/6-THIOGUANINE, Metabolic Activation: NONE, Method: STANDARD PLATE): inactive; negative; mutagenic call (Test System: CHINESE HAMSTER OVARY, Strain/Indicator: CHO-UV5 (HGPRT)/6-THIOGUANINE, Metabolic Activation: RAT, LIVER, S-9, AROCLOR 1254, Method: STANDARD PLATE): active; positive

With c1ccc2cc3c(cc2c1)c1cccc2ccc4cccc3c4c21 as the compound, how does the mutagenic call (Test System: HUMAN H1A1V2 CELLS, Strain/Indicator: TK LOCUS, Metabolic Activation: NONE, Method: SUSPENSION/PLATE) read?
Its mutagenic call is “active; positive”.

Which mutagenic call (End Point: In vitro micronucleus, Test System: Chinese Hamster Ovary (CHO-WBL) cells, Metabolic Activation: None) does the source give for CCCOS(=O)(=O)OCCC here?
The mutagenic call was “active; positive (p<0.01)”.

O=[N+]([O-])c1ccc(-c2ccc([N+](=O)[O-])cc2)cc1 was tested. Which mutagenic call (Test System: AMES SALMONELLA TYPHIMURIUM, Strain/Indicator: TA98(1,8-DNP6), Metabolic Activation: NONE, Method: STANDARD PLATE) did it give?
Its mutagenic call is “active; positive”.

And the mutagenic call [4]?
The mutagenic call was “inactive; negative”.

What about the mutagenic call [5] of the same compound?
The mutagenic call was “active; positive”.

What about the mutagenic call [1] of the same compound?
The mutagenic call was “active; positive”.

What about the mutagenic call (Test System: AMES SALMONELLA TYPHIMURIUM, Strain/Indicator: TA98, Metabolic Activation: RAT, LIVER, S-9, PCB (10%), Method: PREINCUBATION) of the same compound?
The mutagenic call was “active; positive”.
